Patent publication USRE47493E1, “Substituted bicyclic dihydropyrimidinones and their use as inhibitors of neutrophil elastase activity” (Boehringer Ingelheim International GmbH, priority 2014, dated 2019)

What was measured:
[1] = tested on: Caco-2 cell monolayers; assay: Assay for Determination of Drug Transport Across Human CACO-2 Cells; type: in vitro ADME
Excerpt: Assay for Determination of Drug Transport Across Human CACO-2 Cells
The assay provides information on the potential of a compound to pass the cell membrane, on the extent of oral absorption as well as on whether the compound is actively transported by uptake and/or efflux transporters. For the measurement of permeability across polarized, confluent human cancer colon carcinoma cells 2 (Caco-2) cell monolayers grown on permeable filter supports are used as the in vitro absorption model. Apparent permeability coefficients (PE) of the compounds across the Caco-2 monolayers are measured (pH 7.2, 37° C.) in apical-to-basal (AB) (absorptive) and basal-to-apical (BA) (secretory) transport direction. AB permeability (PEAB) represents drug absorption from the intestine into the blood and BA permeability (PEBA) drug secretion from the blood back into the intestine via both passive permeability as well as active transport mechanisms mediated by efflux and uptake transporters that are expressed on the Caco-2 cells. The compounds are assigned to permeability/absorption classes by comparison of the AB permeabilities with the AB permeabilities of reference compounds with known in vitro permeability and oral absorption in the human. Identical or similar permeabilities in both transport directions indicate passive permeation, vectorial permeability points to additional active transport mechanisms. […] Active transport is concentration-dependently saturable.
Caco-2 cells (1−2*10^5 cells/cm^2 area) are seeded on filter inserts (Costar transwell polycarbonate or PET filters, […] pore size) and cultured (DMEM) for 10 to 25 days. Compounds are dissolved in appropriate solvent (like DMSO, 1-20 mM stock solutions). Stock solutions are diluted with HTP-4 buffer (128.13 mM NaCl, 5.36 mM KCl, 1 mM MgSO4, 1.8 mM CaCl2, 4.17 mM NaHCO3, 1.19 mM Na2HPO4×7H2O, 0.41 mM NaH2PO4×H2O, 15 mM HEPES, 20 mM glucose, pH 7.2) to prepare the transport solutions (typically […] compound, final DMSO <=0.5%). The transport solution (TL) is applied to the apical or basolateral donor side for measuring A-B or B-A permeability (3 filter replicates), respectively. The receiver side contains HTP-4 buffer supplemented with 2% BSA. Samples are collected at the start and end of experiment from the donor and at various time intervals for up to 2 hours also from the receiver side for concentration measurement by LC-MS/MS or scintillation counting. Sampled receiver volumes are is replaced with fresh receiver solution.
The apparent permeability coefficients (PEAB and PEBA) and efflux ratios (PEBA/PEAB) of selected compounds in the Caco-2 drug transport assay described above are listed in Table 17.

[2] = Assay for Determination of Aqueous Solubility; type: physicochemical; conditions: McIlvaine buffer pH 6.8, 2.5% DMSO, 24 h
Protocol: Assay for Determination of Aqueous Solubility
The aqueous solubility of a compound is determined by comparing the amount dissolved in aqueous buffer (containing 2.5% DMSO) to the amount dissolved in an acetonitrile/water (1/1) solution. Starting from a 10 mM DMSO stock solution, aliquots are diluted with acetonitrile/water (1/1) and Mcllvaine buffer pH 6.8, respectively. After 24 h of shaking, the solutions or suspensions are filtered and analyzed by LC-UV. The amount dissolved in buffer is compared to the amount dissolved in the acetonitrile/water (1/1) solution. Solubility is measured from 0.001 to 0.125 mg/ml at a DMSO concentration of 2.5%. If more than 90% of the compound is dissolved in buffer, the value is marked with “>”.

[3] = target: Human neutrophil elastase (Homo sapiens (Human), UniProt P08246); assay: Human Neutrophil Elastase Assay; type: biochemical; conditions: human neutrophil elastase, substrate MeOSuc-Ala-Ala-Pro-Val-AMC, pH 7.5; read-out: IC50
Protocol: Human Neutrophil Elastase Assay
Materials: Human neutrophil elastase was purchased from Calbiochem (Cat.No.: 324681) and the elastase substrate MeOSuc-Ala-Ala-Pro-Val-AMC from Bachem (Cat.No.: I-1270). All other materials were of the highest grade commercially available.
The following buffers were used: Compound buffer: 100 mM Tris, 500 mM NaCl, adjusted to pH 7.5; Assay buffer: 100 mM Tris, 500 mM NaCl, adjusted to pH 7.5, containing 0.01% BSA.
Assay conditions: Test compounds were prediluted in DMSO and subsequently in compound buffer (5% DMSO final). 5 μL of these compound dilutions were mixed with 10 μl Neutrophil elastase (9 ng/ml in assay buffer) in a black 384 well OptiPlate (Perkin Elmer, Cat No.: 6007270) and incubated for 15 min at room temperature. Subsequently 10 μL substrate solution in assay buffer were added (250 nM final concentration) and the plates were incubated for 60 min at room temperature. After inactivation of the enzyme, fluorescence intensities were measured at 380 nm excitation and 460 nm emission wavelengths.
Each plate contains wells with a high value control (DMSO+enzyme+substrate) and wells with a low value control (DMSO+inactivated enzyme+substrate). IC50 values were estimated using a sigmoidal concentration response curve with variable slope. Means of low values were taken as 0%, means of high values as 100%.

[4] = target: neutrophil elastase in human plasma (Homo sapiens (Human), UniProt P08246); assay: Assay for the Determination of Neutrophil Elastase Inhibitory Activity in Human Plasma; type: biochemical; conditions: neutrophil elastase enriched human plasma (zymosan-stimulated blood)
Protocol: Assay for the Determination of Neutrophil Elastase Inhibitory Activity in Human Plasma
Citrated blood from human healthy donors is mixed with zymosan suspension and incubated at room temperature. This leads to the stimulation of neutrophils and the release of neutrophil elastase into the plasma. The stimulated blood is centrifuged to generate the neutrophil elastase enriched plasma.
Preparation of Zymosan Working Solution:
• single 45 ml blood sample is taken into a 50 ml tube containing citrate (3.13%, 5 mL) and the tube is gently inverted 4 times. • Immediately after blood sampling, zymosan working solution (5 mL) is added. • After the addition of zymosan working solution, the tubes are capped, mixed gently and incubated at 22° C. for 15 min on a shaker at 20 rpm. • Make 10 ml aliquots after the incubation time. • Centrifuge the 15 ml tubes at 800 g for […] at 4° C. in a Jouan centrifuge. • Harvest the plasma and make 1-5 ml aliquots. • Store the plasma at −80° C.
Various concentrations of the neutrophil elastase inhibitor are incubated with plasma. Subsequently, the enzyme activity is measured using the fluorogenic substrate MeOSuc-Ala-Ala-Pro-Val-AMC (Bachem Cat. No. 1-1270, substrate concentration: 250 μM, pH 7.5, 25 mM TRIS buffer, 250 mM NaCl) in analogous fashion as described for the human neutrophil assay. A dose response curve is generated to calculate the EC50 of the inhibitor. The analysis of the data is performed by the calculation of the percentage of fluorescence in the presence of the test compound compared to the fluorescence of the vehicle control after subtracting the background fluorescence: An inhibitor of the neutrophil elastase enzyme will give values between 100% control (no inhibition) and 0% control (complete inhibition). The human plasma shift of selected compounds can be calculated using the following equation: Human plasma shift=(EC50 in human plasma assay)/(IC50 in human neutrophil elastase assay) The EC50 values of selected compounds in the human plasma assay described above are listed in Table 14.

[5] = Assay for the Determination of Metabolic Stability with Human Liver Microsomes; type: in vitro ADME; conditions: pooled human liver microsomes, 37° C., NADPH
Protocol: Assay for the Determination of Metabolic Stability with Human Liver Microsomes
The metabolic degradation of the test compound is assayed at 37° C. with pooled human liver microsomes. The final incubation volume of […] per time point contains TRIS buffer pH 7.6 (0.1 M), magnesium chloride (5 mM), microsomal protein (1 mg/ml) and the test compound at a final concentration of […]. Following a short preincubation period at 37° C., the reactions are initiated by addition of beta-nicotinamide adenine dinucleotide phosphate, reduced form (NADPH, 1 mM) and terminated by transfering an aliquot into acetonitrile after different time points. Additionally, the NADPH-independent degradation is monitored in incubations without NADPH, terminated at the last time point. The rol remaining test compound after NADPH independent incubation is reflected by the parameter c(control) (metabolic stability). The quenched incubations are pelleted by centrifugation (10′000 g, 5 min) An aliquot of the supernatant is assayed by LC-MS/MS for the amount of parent compound.
The half-life (t1/2 INVITRO) is determined by the slope of the semilogarithmic plot of the concentration-time profile. The intrinsic clearance (CL_[…]) is calculated by considering the amount of protein in the incubation: CL_[…][μl/min/mg protein]=(ln 2/(half-life [min]*protein content [mg/ml]))*1′000.
The half-life (t1/2 INVITRO) values of selected compounds in the metabolic stability assay described above are listed in Table 15.

[6] = Assay for the Determination of Metabolic Stability with Human Hepatocytes; type: in vitro ADME; conditions: scaled with well stirred model
Protocol: Assay for the Determination of Metabolic Stability with Human Hepatocytes
The metabolic degradation of the test compound is assayed in a human hepatocyte suspension. Human hepatocytes (typically cryopreserved) are incubated in an appropriate buffer system (e.g. Dulbecco's modified eagle medium plus 3.5 μg glucagon/500 mL, 2.5 mg insulin/500 mL and 3.75 mg/500 mL hydrocortison) containing 5% species serum. Following a (typically) […] preincubation in an incubator (37° C., 10% CO2), 5 μl of test compound solution (80 μM; from 2 mM stock solution in DMSO diluted 1:25 with medium) are added into 395 μl hepatocyte suspension (cell density in the range 0.25-5*10^6 cells/mL, typically 1*10^6 cells/mL; final concentration of test compound 1 μM, final DMSO concentration […]). The cells are incubated for six hours (incubator, orbital shaker) and samples (25 μl) are taken at 0, 0.5, 1, 2, 4 and 6 hours. Samples are transferred into acetonitrile and pelleted by centrifugation (5 min). The supernatant is transferred to a new 96-deepwell plate, evaporated under nitrogen and resuspended. The decline of parent compound is analyzed by LC-MS/MS.
The intrinsic clearance CL_[…] is calculated as follows: CL_[…]=Dose/AUC=(C0/CD)/(AUD+clast/k)*1′000/60 (C0: initial concentration in the incubation [μM], CD: cell density of vital cells [10^6 cells/mL], AUD: area under the data [μM*h], clast: concentration of last data point [μM], k: slope of the regression line for parent decline [h^−1])
The calculated in vitro hepatic intrinsic clearance can be scaled up to the intrinsic in vivo hepatic clearance and used to predict hepatic in vivo blood clearance (CL) by the use of a is liver model (well stirred model): CL_[…]_INVIVO [ml/min/kg]=(CL_[…] [μL/min/10^6 cells]* hepatocellularity[10^6 cells/g liver]*liver factor[g/kg bodyweight])/1′000 CL[ml/min/kg]=CL_[…]_INVIVO [ml/min/kg]*hepatic blood flow [ml/min/kg]/(CL_[…]_INVIVO [ml/min/kg]+hepatic blood flow [ml/min/kg]) Qh[%]=CL[ml/min/kg]/hepatic blood flow[ml/min/kg]) (Hepatocellularity, human: 120*10^6 cells/g liver; lver factor, human: 25.7 g/kg bodyweight; blood flow, human: 21 ml/(min*kg))
The predicted human hepatic in vivo blood clearance (CL) of selected compounds in the metabolic stability assay described above are listed in Table 16.

Sequence of Human neutrophil elastase (P08246 30-267): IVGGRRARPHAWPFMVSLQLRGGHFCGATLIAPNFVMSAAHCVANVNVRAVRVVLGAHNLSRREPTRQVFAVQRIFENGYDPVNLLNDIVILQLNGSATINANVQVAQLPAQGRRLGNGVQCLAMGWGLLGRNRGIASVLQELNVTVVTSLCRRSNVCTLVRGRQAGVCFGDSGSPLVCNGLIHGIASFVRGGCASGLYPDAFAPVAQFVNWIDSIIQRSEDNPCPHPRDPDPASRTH
Sequence of neutrophil elastase in human plasma (P08246 30-267): as above

SMILES	Efflux ratio ([1]; Caco-2, PEBA/PEAB)	PEAB ([1]; Caco-2, apical-to-basal, pH 7.2, 37° C.)	PEBA ([1]; Caco-2, basal-to-apical, pH 7.2, 37° C.)	Aqueous solubility [2]	IC50 [3]	EC50 [4]	t1/2 INVITRO [5]	CL (predicted human hepatic in vivo blood clearance) [6]
CCNC(=O)N1C(=O)N(c2cccc(C(F)(F)F)c2)C2=C(C(=O)CCC2)C1c1ccc(C#N)cc1S(C)(=O)=O (stereo not shown) [Example 47.1]	5.4	15 ×10⁻⁶ cm/s	81 ×10⁻⁶ cm/s	73 µg/mL	< 1 nM	1 nM		
CS(=O)(=O)c1cc(C#N)ccc1C1C2=C(CCCC2=O)N(c2cccc(C(F)(F)F)c2)C(=O)N1CCCO (stereo not shown) [Example 58.2]				56 µg/mL	1.2 nM	3 nM	>2.17 h	3 mL/min/kg
CS(=O)(=O)c1cc(C#N)ccc1[C@@H]1C2=C(CCCC2=O)N(c2cccc(C(F)(F)F)c2)C(=O)N1C(=O)NC1CCOCC1 [Example 75.16]				66 µg/mL	< 1 nM	1 nM	>2.17 h	0 mL/min/kg
